Measured values taken from patent US20260108548A1, “COMPOSITION OF PAEONIFLORIN AND ISOLIQUIRITIGENIN AND USE THEREOF” (HENAN UNIVERSITY OF CHINESE MEDICINE, priority 2023, published 2026).

Columns and labels:
Type in all cases: in vivo, SD rats
[1] = tested on: rat pulmonary fibrosis model; test: Lung function (FinePointe PFT) in bleomycin pulmonary fibrosis rats, Example 1
Experimental: (§1) A rat pulmonary fibrosis model was prepared using a one-time intratracheal instillation of bleomycin. After the rat was anesthetized by intraperitoneal injection of 10% chloral hydrate (3.0 ml/kg), it was tilted back and fixed on a rat board and irradiated with light source on the throat, and the glottis was seen to open and close in an orderly manner with breathing when the tongue was gently lifted to open the mouth. The indwelling needle was gently pushed into the trachea as the glottis opened and closed, the needle core was pulled out, and whether tracheal intubation was successful was verified by swing of a cotton thread. Bleomycin was injected into the trachea at a dose of 5 mg/kg, and 0.5 ml of air was further injected to ensure the depth of the drug. The rat was held upright and rocked from side to side to ensure even distribution of the drug in the lung. The anesthetized rat was placed on an electric blanket to maintain body temperature. After waking up, it is placed into a corresponding cage. The rats were fed normally until the 28th day, drinking pure water and eating sterile feed freely every day.
(§2) The modeling day was set as day 0.
(§3) Before collecting the sample, the rat was anesthetized and submitted to a tracheotomy, and the tracheal tube was inserted into the rat's trachea and fixed. The FinePointe™ series PFT measurement system was used to detect the rat's forced vital capacity (FVC), forced expiratory volume in 0.3 s (FEV 0.3), vital capacity (VC), and dynamic lung compliance (Cydn).

[2] = tested on: rat pulmonary fibrosis model; test: Lung tissue pathology, H&E and Masson staining, Szapiel scoring, Example 1; details: for Alveolitis (score): H&E staining; for Alveolitis (score) / Pulmonary fibrosis (score): score 0-3, doses per Table 4, 14 days, X ± SE, N = 6; for Pulmonary fibrosis (score): Masson staining
Experimental: as §1, §2
The left lung was fixed with 10% formaldehyde for 72 hours, embedded in paraffin, sectioned at 4 μm for HE and Masson staining.
Pathological scoring of alveolitis and pulmonary fibrosis was performed according to the Szapiel method, the degree of alveolitis was determined by HE staining, and the degree of pulmonary fibrosis was determined by Masson staining.
The pathological changes in lung tissue were observed using an optical microscope. 6 sections were selected from each group and 6 fields were selected from each section.

CoL I = CoL I expression in lung tissue by immunohistochemistry, Example 1; details: for expression of CoL I protein, compared with the model group: P<0.01, P<0.05; for COL I (IOD): lung tissue IHC, doses per Table 4, 14 days, X ± SE, N = 6
Experimental: as §1, §2
(§4) The detection was performed by Immunohistochemistry.
(§5) The lung tissue was sliced into 4 μm sections and baked at 60° C. for 3 hours. The paraffin sections were dewaxed in xylene, dehydrated in gradient alcohols, and washed in distilled water for 2 minutes in order. The washed sections were then boiled in 0.01 M citrate buffer in a microwave oven for antigen retrieval. A 3% […] was added dropwise to the sections to block endogenous peroxidase. After the sections were blocked with a 5% BSA blocking solution and incubated at 37° C. for 30 minutes, the primary antibody was added dropwise thereto (the dilution ratio was 1:500 for CoL I, and 1:2000 for α-SMA), and the sections were incubated overnight in a humid box at 4° C. HRP-labeled goat anti-rabbit secondary antibody was added dropwise, and the sections were incubated at 37° C. for 20 minutes; and then SABC was added dropwise and the sections were incubated at 37° C. for 30 minutes. Thereafter, a freshly prepared DAB chromogenic solution was added dropwise, and the sections were observed under a microscope, and the color development was stopped once brownish yellow appeared. The sections were counterstained with hematoxylin for 30 seconds, differentiated with a 1% hydrochloric acid in alcohol for 3 seconds; and dehydrated in gradient alcohols in sequence. The sections were dried in a fume hood, sealed with neutral gum, and dried in the air. Images were collected with Olympus-DP70 microscope (Image-Pro Plus 6.0, IPP 6.0), 6 fields were randomly selected for each section, and the image integrated optical density (IOD) was calculated.

α-SMA = α-SMA expression in lung tissue by immunohistochemistry, Example 1; details: for expression of α-SMA protein, compared with the model group: P<0.05; for α-SMA (IOD): lung tissue IHC, doses per Table 4, 14 days, X ± SE, N = 6
Experimental: as §1, §2, §4, §5

[3] = tested on: rat pulmonary fibrosis model; test: R value comprehensive evaluation of 8 indicators, Example 1; details: for Total efficacy related indicator R value: 8 indicators, R=1 best effect, R=2 no corrective effect, X ± SE, N = 8
Experimental: The data were standardized and the Rcomprehensive value data set was established (Rcomprehensive=R−(−2)). […] When Rcomprehensive<1, it means that the comprehensive corrective degree of the drug on such indicators exceeds the normal value.
A total of 8 indicators, i.e., lung function (FVC, FEV0.3, IC, Cydn), lung tissue pathology (H&E staining, Masson staining), and collagen deposition (CoL I, α-SMA) were calculated using the R value comprehensive evaluation method.

[4] = tested on: rat pulmonary fibrosis model; test: Lung function in bleomycin pulmonary fibrosis rats, Example 2; details: for Cydn / FEV0.3 / FVC: isoliquiritigenin, paeoniflorin, combination each 0.55 mg/kg/d intragastric, day 29-42, X ± SE, N = 10
Experimental: In order to evaluate the difference in the efficacy of isoliquiritigenin and paeoniflorin alone and in combination, a study was conducted by splitting the Formula 8 into isoliquiritigenin, paeoniflorin and combination thereof, each adopting the dose of 0.55 mg/kg/d.
The experimental materials and research methods were the same as those in Example 1.
A total of 72 rats were randomly divided into blank group, model group, isoliquiritigenin group, paeoniflorin group, combination group, and pirfenidone group, 6 groups in total, 12 rats in each group, and 6 female/group, 6 male/group. The modeling day was set as day 0. From the 29th day, the blank group (normal rats without modeling) and the model group were administered intragastrically with physiological saline (2 ml/rat), the isoliquiritigenin group was administered with isoliquiritigenin (0.55 mg/kg/d), the paeoniflorin group was administered with paeoniflorin (0.55 mg/kg/d), and the combination group was administered with isoliquiritigenin+paeoniflorin (0.55 mg/kg/d), once daily, for 14 days, and the samples were collected at the end of the 42nd day.
as §3, with “rats were” for “rat was”

[5] = tested on: rat pulmonary fibrosis model; test: Lung tissue pathology, H&E and Masson staining, Szapiel scoring, Example 2; details: for Alveolitis (score): H&E staining; for Alveolitis (score) / Pulmonary fibrosis (score): each 0.55 mg/kg/d, 14 days, X ± SE, N = 6; for Pulmonary fibrosis (score): Masson staining
Experimental: The experimental materials and research methods were the same as those in Example 1. […] The modeling day was set as day 0. […] The left lung was fixed with 10% formaldehyde for 72 hours, embedded in paraffin, sectioned at 4 μm for HE and Masson staining. Pathological scoring of alveolitis and pulmonary fibrosis was performed according to the Szapiel method, the degree of alveolitis was determined by HE staining, and the degree of pulmonary fibrosis was determined by Masson staining. The pathological changes in the lung tissue were observed using an optical microscope. 6 sections were selected from each group and 6 fields were selected from each section.

[6] = tested on: rat pulmonary fibrosis model; test: Lung function in bleomycin pulmonary fibrosis rats, Example 2; details: for IC: isoliquiritigenin, paeoniflorin, combination each 0.55 mg/kg/d intragastric, day 29-42, X ± SE, N = 10
[7] = bleomycin 5 mg/kg intratracheal, intragastric once daily day 29-42, doses per Table 4, X ± SE, N = 10

Compound	IC, compared with the model group ([1]; P<0.01, P<0.05)	Cydn [1, 7]	FEV0.3 [1, 7]	Alveolitis (score) [2]	Pulmonary fibrosis (score) [2]	expression of CoL I protein, compared with the model group (CoL I)	COL I (IOD) (CoL I)	expression of α-SMA protein, compared with the model group (α-SMA)	α-SMA (IOD) (α-SMA)	Total efficacy related indicator R value [3]	FEV0.3, compared with the model group ([4]; P<0.01, P<0.05)	Cydn [4]	FEV0.3 [4]	FVC [4]	Alveolitis (score) [5]	Pulmonary fibrosis (score) [5]	pulmonary fibrosis score, compared with the model group ([5]; P<0.01, P<0.05)	IC [6]	alveolitis scores, compared with the model group ([2]; P<0.01, P<0.05)	further results
paeoniflorin [Formula 7]	significantly increased	0.31 ± 0.03 mL/s	14.70 ± 1.25^##Δ ml/s	1.44 ± 0.27 score	0.94 ± 0.16 score	significantly reduced	13.61 ± 1.90 IOD	significantly reduced	10.57 ± 0.36 IOD	1.41 ± 0.27^##□▪	increased	0.31 ± 0.54 mL/s	12.88 ± 0.98 mL/s	13.49 ± 1.17 mL/s	1.52 ± 0.29 score	1.65 ± 0.19 score	could reduce	9.62 ± 0.54 mL/s		FEV0.3, compared with the model group ([1]; P<0.01, P<0.05): significantly increased; FVC, compared with the model group ([1]; P<0.01, P<0.05): significantly increased; FEV0.3, compared with the pirfenidone group ([1]; P<0.05): increased; FVC, compared with the pirfenidone group ([1]; P<0.05): increased; FVC [1, 7]: 15.95 ± 1.36^##Δ ml/s; IC [1, 7]: 9.84 ± 0.75 mL/s; pulmonary fibrosis scores, compared with the model group ([2]; P<0.01, P<0.05): significantly reduced; R value comprehensive evaluation, comparison between treatment groups [3]: better than the Formula 3 (icariin), the Formula 4 (isoliquiritigenin), and the Formula 5 (nobiletin); FVC, compared with the model group ([4]; P<0.01, P<0.05): increased
C[C@H]1CC[C@@H]2N(C1)C[C@H]1[C@@H]3C[C@H]4[C@@H](C[C@H](O)[C@H]5C[C@@H](O)CC[C@@]54C)[C@@H]3CC[C@@H]1[C@]2(C)O [Formula 6, peimine]		0.30 ± 0.03 mL/s	12.04 ± 1.36 mL/s	1.17 ± 0.19 score	1.39 ± 0.23 score		17.37 ± 0.89 IOD	significantly reduced	9.647 ± 0.8 IOD	1.57 ± 0.29									significantly reduced	
Cc1ccc(=O)n(-c2ccccc2)c1 [Pirfenidone]	significantly increased	0.33 ± 0.03 mL/s	10.68 ± 0.97 mL/s	1.33 ± 0.24 score	1.33 ± 0.37 score	significantly reduced	10.41 ± 0.63 IOD		12.57 ± 1.17 IOD	1.61 ± 0.32^#^	increased	0.33 ± 0.03 mL/s	13.46 ± 1.04 mL/s	12.34 ± 1.11 mL/s	1.43 ± 0.28 score	1.46 ± 0.39 score	significantly reduced	10.77 ± 0.83 mL/s		alveolitis score, compared with the model group ([5]; P<0.01, P<0.05): significantly reduced; IC, compared with the model group ([6]; P<0.01, P<0.05): increased
O=C(/C=C/c1ccc(O)cc1)c1ccc(O)cc1O [Formula 4, isoliquiritigenin]		0.30 ± 0.03 mL/s	10.42 ± 1.43 mL/s	1.72 ± 0.25 score	1.78 ± 0.33 score	significantly reduced	15.54 ± 2.59 IOD		12.20 ± 0.89 IOD	1.82 ± 0.11^∘∘	increased	0.32 ± 0.04 mL/s	11.09 ± 1.01 mL/s	11.34 ± 0.78 mL/s	1.68 ± 0.30 score	1.74 ± 0.31 score	could reduce	9.03 ± 0.88 mL/s		
COc1ccc(-c2cc(=O)c3c(OC)c(OC)c(OC)c(OC)c3o2)cc1OC [Formula 5, nobiletin]		0.35 ± 0.02 mL/s	11.44 ± 1.41 mL/s	1.39 ± 0.54 score	1.56 ± 0.49 score		18.40 ± 0.89 IOD	significantly reduced	9.030 ± 0.8 IOD	1.48 ± 0.46										Cydn, compared with the model group ([1]; P<0.05): increased
COc1ccc(-c2oc3c(CC=C(C)C)c(O[C@@H]4O[C@H](CO)[C@@H](O)[C@H](O)[C@H]4O)cc(O)c3c(=O)c2O[C@@H]2O[C@@H](C)[C@H](O)[C@@H](O)[C@H]2O)cc1 [Formula 3, icariin]		0.34 ± 0.05 mL/s	10.46 ± 1.58 mL/s	0.94 ± 0.39 score	1.33 ± 0.31 score		17.80 ± 1.44 IOD		12.03 ± 1.87 IOD	1.76 ± 0.16^∘^									significantly reduced	
